Experiments:
[1] = test system: mice with traumatic brain injury; assay: Rotorod vestibulomotor function after traumatic brain injury; assay type: in vivo, mouse; conditions: 0.05 mg/kg iv at 2 h and 6 h after traumatic brain injury
Procedure: An experimental murine model for traumatic brain injury was developed. Laskowitz, et al. (2010) J. Neurotrauma, 27:1983-95. Male mice (age 12-14 weeks) were anesthetized with 4.3% isoflurane in oxygen in an anesthesia induction box for 90 seconds. The trachea was intubated and the lungs mechanically ventilated with 1.4% isoflurane in a 50/50 mixture of oxygen and nitrogen. Body temperature was maintained at 37° C. using surface heating/cooling. The top of the skull was exposed by a midline incision to identify anatomical landmarks, and a concave 3-mm metallic disc was secured to the skull surface with an adhesive, directly midline and just caudal to the bregma. The disc diffused the energy of impact and reduced the incidence of depressed skull fracture to less than 10%. After general anesthesia, mice were positioned in a stereotactic device and the skull was exposed. A pneumatic impactor (diameter: 2.0 mm; available from Air-Power, Inc.) discharged at 6.8±0.2 m/s with a head displacement of 3 mm was used to deliver a single midline impact to the disc surface.
An experimental procedure for measuring neurological deficits was developed. An automated rotorod (available from Ugo Basile North America, Inc.) was used to assess vestibulomotor function. On the day before experimental induction of a neurological condition or injury (such as, for example, traumatic brain injury or intracerebral hemorrhage as described above), mice under went two consecutive conditioning trials at a set rotational speed (16 revolutions per minute) for 60 seconds followed by three additional trials with an accelerating rotational speed. The average time to fall from the rotating cylinder in the latter three trials was recorded as baseline latency. After injury, mice under went consecutive daily testing with three trials of accelerating rotational speed (intertribal interval of 15 minutes). Average latency to fall from the rod was recorded, and mice unable to grip the rod were scored with a latency of 0 seconds.
Groups of mice received either an ApoE mimetic peptide (SEQ ID NO:3; 0.05 mg/kg or 0.2 mg/kg) or carrier (saline) by intravenous tail vein injection at 2 hours and again at 6 hours after traumatic brain injury induced as described in Example 3. Each mouse was tested for vestibulomotor function by rotorod latency measured before and after injury, as described in Example 3.
Groups of mice received either an ApoE mimetic peptide (SEQ ID NO:4; 0.05 mg/kg) or carrier (saline) by intravenous tail vein injection at 2 hours and again at 6 hours after traumatic brain injury induced as described in Example 3. Each mouse was tested for vestibulomotor function by rotorod latency measured before and after injury, as described in Example 3. […]

[2] = test system: mice with middle cerebral artery occlusion (focal ischemia-reperfusion); assay: Rotorod vestibulomotor function after modified middle cerebral artery occlusion (MCAO); assay type: in vivo, mouse
From the text: A modified middle cerebral artery occlusion (MCAO) model (Huang et al., (1994) Science, 265:1883-1885; Laskowitz et al., (1997) J. Cereb. Blood Flow Metab., 17:753-758) was used to determine the effect of the mimetic peptides on neurological function after stroke and to evaluate the peptide's efficacy as a therapeutic agent for stroke. The mice were endotracheally intubated after anesthesia induction with 4.6% isoflurane, and the lungs were mechanically ventilated with 1.6% isoflurane in 30% O2/70% N2. Via a midline cervical skin incision, the right common carotid artery was identified. The external carotid artery was ligated and transected. The internal carotid artery was dissected distally until the origin of the pterygopalatine artery was visualized. A 6-0 nylon monofilament with blunted tip lightly coated with silicone was inserted into the proximal external carotid artery stump and advanced 11 mm into the internal carotid artery to occlude the middle cerebral artery. After 90 min, the filament was removed to restore blood perfusion, and the skin incision closed with suture. Isoflurane was discontinued and the mice were extubated upon the recovery of spontaneous respiration. Post-injury mice were placed in an oxygen-enriched environment (FIO2=50%) for 1 hr and then returned to their cages. Rectal temperature was continuously monitored and servoregulated with surface heating/cooling at 37° C. throughout the procedure.
Two groups of 10-12 week old male C57Bl/6J mice, a control group (n=12) and a VR-55-treated group (n=9), received MCAO. […]
An automated Rotorod (Ugo Basile, Comerio, Italy) was used to assess vestibulomotor function, as previously described above. […] The average time to fall from the rotating cylinder in the latter 3 trials was recorded as baseline functional Rotorod latency. […] The average latency to fall from the rod was recorded. […]

Substance: Ac-VSRRR-NH2 [VR-55, Ac-VSRRR-NH2]
- durability of effect on rotorod latency [1]: durable through the five-day testing period
- vestibulomotor performance (rotorod latency) compared to carrier ([1]; FIG. 3): improved vestibulomotor performance
- functional Rotorod latency compared to control mice ([2]; Day 3 post-injury, 0.05 mg/kg iv at 30 min and 6 hrs after reperfusion): improvement in functional Rotorod latency
- functional Rotorod latency ([2]; Day 3 post-injury, 0.05 mg/kg iv at 30 min and 6 hrs after reperfusion, control mice 161+/−32 sec): 216 ± 26 s
- baseline functional Rotorod latency ([2]; day before MCAO, control mice 217+/−20 sec): 214 ± 22 s
